Results on one compound are retold here after US20260257039A1, “CONVECTION-ENHANCED THERMO-CHEMOTHERAPY CATHETER SYSTEM” (Board of Regents, The University of Texas System, priority 2022, published 2026).

One data set relates to ex vivo porcine brains. As to conditions: contrast agent infusion, literature; cited from earlier work.
A further data set deals with excised pig brains. On the procedure:
The volume of solution that leaked into the ventricles was segmented into a separate mask (green).
In recent studies (see e.g. FIG. 62A-FIG. 62C) E. Y. Elenes et al., Journal of Engineering and Science in Medical Diagnostics and Therapy, 2020), the arborizing catheter, comprising six infusion ports, was compared to a reflux-preventing single-port catheter. Infusions of iohexol at a flow rate of 1 μL/min/microneedle were performed, using the arborizing catheter on one hemisphere and a single-port catheter on the contralateral hemisphere of excised pig brains. The volume dispersed (Va) of the contrast agent was quantified for each catheter using standard techniques (G. P. Mazzara, et al., International Journal of Radiation Oncology Biology Physics, 2004; and M. F. Dempsey, et al., American Journal of Neuroradiology, 2005).

The structures appear in SMILES notation.

Turning to `CC(=O)N(CC(O)CO)c1c(I)c(C(=O)NCC(O)CO)c(I)c(C(=O)NCC(O)CO)c1I` (centres unmarked) [iohexol], in the data set on ex vivo porcine brains, the “voxels with a concentration between 10 and 15%” value is listed as about 40%. Further, the “Vd, arborizing catheter relative to single-port catheter” value with excised pig brains is reported as “approximately 6 times”.
